Reference: US9675614B2, “PRMT5 inhibitors and uses thereof” (Epizyme, Inc., priority 2012, dated 2017)
Read-outs that look alike come from different tables or passages of the source.

Target: PRMT5/MEP50 (Homo sapiens (Human), UniProt O14744)
Experiment: PRMT5 Biochemical Assay (PRMT5/MEP50 enzyme assay on peptide substrate, 3H-SAM Flashplate)
[1] = PRMT5/MEP50 biochemical assay, read-out: Biochemical IC50

Sequence of PRMT5/MEP50 (O14744 other isoform, or with tags, fused parts or gaps): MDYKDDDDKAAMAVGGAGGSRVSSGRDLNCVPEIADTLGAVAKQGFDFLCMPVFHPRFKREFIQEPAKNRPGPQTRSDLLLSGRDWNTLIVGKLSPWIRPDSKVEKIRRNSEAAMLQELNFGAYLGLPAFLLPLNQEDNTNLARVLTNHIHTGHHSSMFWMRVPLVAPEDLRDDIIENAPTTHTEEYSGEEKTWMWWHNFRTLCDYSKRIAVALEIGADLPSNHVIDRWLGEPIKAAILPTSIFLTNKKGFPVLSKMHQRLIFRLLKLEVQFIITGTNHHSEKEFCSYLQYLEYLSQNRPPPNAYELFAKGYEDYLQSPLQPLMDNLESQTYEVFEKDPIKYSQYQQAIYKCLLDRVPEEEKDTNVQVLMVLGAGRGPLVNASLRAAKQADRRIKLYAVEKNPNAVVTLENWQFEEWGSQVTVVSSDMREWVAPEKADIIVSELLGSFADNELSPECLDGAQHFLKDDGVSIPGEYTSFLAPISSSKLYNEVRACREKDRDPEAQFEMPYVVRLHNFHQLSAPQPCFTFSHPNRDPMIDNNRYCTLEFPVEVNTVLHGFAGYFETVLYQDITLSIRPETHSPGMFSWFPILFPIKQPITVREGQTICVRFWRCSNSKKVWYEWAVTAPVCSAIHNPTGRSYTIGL
Sequence of PRMT5/MEP50 (Q9BQA1 other isoform, or with tags, fused parts or gaps partner): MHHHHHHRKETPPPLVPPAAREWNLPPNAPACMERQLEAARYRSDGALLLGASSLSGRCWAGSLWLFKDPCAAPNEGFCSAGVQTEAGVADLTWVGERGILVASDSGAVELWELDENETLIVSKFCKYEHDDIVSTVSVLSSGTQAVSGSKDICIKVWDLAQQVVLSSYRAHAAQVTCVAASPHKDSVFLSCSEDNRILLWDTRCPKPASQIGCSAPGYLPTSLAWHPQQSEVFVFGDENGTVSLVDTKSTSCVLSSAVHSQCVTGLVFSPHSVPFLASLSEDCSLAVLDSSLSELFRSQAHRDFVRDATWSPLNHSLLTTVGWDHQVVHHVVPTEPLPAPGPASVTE

| SMILES | IC50 [1] [nM] | IC50 [nM] |
| --- | --- | --- |
| O=C(NC[C@H](O)CN1CCc2ccccc2C1)c1ccc2c(c1O)NCCC2 [Compound 328] | 1000 to 10000 |  |
| O=C(NCC(O)CN1CCc2ccccc2C1)c1cccc(NC2CCCOC2)c1 (stereo not drawn) [Compound 60] | 101 to 1000 |  |
| O=C1COc2cc(C(=O)NCC(O)CN3CCc4ccccc4C3)ccc2N1 (stereo not drawn) [Compound 89] | 101 to 1000 |  |
| O=C(NC[C@H](O)CN1CCc2ccccc2C1)Oc1ccccc1 [Compound 7] |  | 1000 to 10000 |
| NC(=O)CNCc1cccc(C(=O)NCC(O)CN2CCc3ccccc3C2)c1 (stereo not drawn) [Compound 116] | 101 to 1000 |  |
| O=C(NCC(O)CN1CCc2ccccc2C1)c1cn[nH]c1-c1ccccc1 (stereo not drawn) [Compound 112] | 101 to 1000 |  |
| Cn1ccnc1C(=O)NCC(O)CN1CCc2ccccc2C1 (stereo not drawn) [Compound 171] | < 100 |  |
| CS(=O)(=O)N1CC(Nc2cc(C(=O)NC[C@H](O)CN3CCc4ccccc4C3)ccn2)C1 [Compound 278] | < 100 |  |
| Cc1ccc2cc(C(=O)NC[C@H](O)CN3CCc4ccccc4C3)ccc2n1 [Compound 221, (S)—N-(3-(3,4-dihydroisoquinolin-2(1H)-yl)-2-hydroxypropyl)-2-methylquinoline-6-carboxamide] | < 100 |  |
| CS(=O)(=O)N1CCC(Nc2cccc(C(=O)NC[C@H](O)CN3CCc4ccccc4C3)c2)CC1 [Compound 216] | < 100 |  |
| O=C(NC[C@H](O)CN1CCc2ccccc2C1)c1ccnc(OC2CCNCC2)c1 [Compound 229] | < 100 |  |
| O=C(NCC(O)CN1CCc2ccccc2C1)c1cccc(NC2CCNC2)c1 (stereo not drawn) [Compound 93] | 101 to 1000 |  |
| CN(C)CCNc1cc(C(=O)NC[C@H](O)CN2CCc3ccccc3C2)ccn1 [Compound 214] | < 100 |  |
| CC(=O)N1CCC(Nc2cncc(C(=O)NC[C@H](O)CN3CCc4ccccc4C3)c2)CC1 [Compound 302] | < 100 |  |
| CC(C)N1CCC(Nc2cccc(C(=O)NCC(O)CN3CCc4ccccc4C3)c2)C1 (stereo not drawn) [Compound 101] | < 100 |  |
| O=C(NCC(O)CN1CCc2ccccc2C1)c1ccc2nccnc2c1 (stereo not drawn) [Compound 85] | 101 to 1000 |  |
| O=C(NC[C@H](O)CN1CCc2ccccc2C1)c1ccnc(NCC2CCNCC2)c1 [Compound 235] | < 100 |  |
| CC(=O)N1CCC(Nc2ccc(C(=O)NCC(O)CN3CCc4ccccc4C3)cc2)CC1 (stereo not drawn) [Compound 127] | < 100 |  |
| COc1ccc(C(=O)NCC(O)CN2CCc3ccccc3C2)cc1NC1CCOCC1 (stereo not drawn) [Compound 67] | 101 to 1000 |  |
| CC(=O)N1CC(Nc2cc(C(=O)NC[C@H](O)CN3CCc4ccccc4C3)ccn2)C1 [Compound 279] | < 100 |  |
| Cn1cc(C(=O)NC[C@H](O)CN2CCc3ccccc3C2)c2ccccc21 [Compound 246] | < 100 |  |
| CC(C)N1CCC(Oc2cccc(C(=O)NCC(O)CN3CCc4ccccc4C3)c2)C1 (stereo not drawn) [Compound 135] | < 100 |  |
| O=C(NCC(O)CN1CCc2ccccc2C1)c1ccc(CN2CCOCC2)cc1 (stereo not drawn) [Compound 145] | < 100 |  |
| Cn1nc(NC2CCOCC2)cc1C(=O)NCC(O)CN1CCc2ccccc2C1 (stereo not drawn) [Compound 311] | < 100 |  |
| COCCCOc1ccc(C(=O)NCC(O)CN2CCc3ccccc3C2)cc1 (stereo not drawn) [Compound 146] | < 100 |  |
| CN(CCOc1cccc(C(=O)NCC(O)CN2CCc3ccccc3C2)c1)CC(N)=O (stereo not drawn) [Compound 277] | < 100 |  |
| CN1CCC(Nc2cccc(C(=O)NC[C@H](O)CN3CCc4ccccc4C3)c2)CC1 [Compound 239] | < 100 |  |
| O=C(NC[C@H](O)CN1CCc2ccccc2C1)c1cc2ccccc2o1 [Compound 271] | < 100 |  |
| O=C(NCC(O)CN1CCc2ccccc2C1)c1cccc(N2CCNCC2)c1 (stereo not drawn) [Compound 35, N-(3-(3,4-dihydroisoquinolin-2(1H)-yl)-2-hydroxypropyl)-3-(piperazin-1-yl)benzamide] | < 100 |  |

The next lines start with results.

| IC50 [1] [nM] | SMILES | IC50 [nM] |
| --- | --- | --- |
| < 100 | O=C(NCC(O)CN1CCc2ccccc2C1)c1ccc(OC2CCN(CC(F)(F)F)C2)cc1 (stereo not drawn) [Compound 199] |  |
| < 100 | O=C(NC[C@H](O)CN1CCc2ccccc2C1)c1cc2ccccc2[nH]1 [Compound 269] |  |
| < 100 | O=C(NCC(O)CN1CCc2ccccc2C1)c1cc(NC2CCOCC2)ncn1 (stereo not drawn) [Compound 63] |  |
| < 100 | Cc1ccc2cc(C(=O)NCC(O)CN3CCc4ccccc4C3)ccc2n1 (stereo not drawn) [Compound 84, N-(3-(3,4-dihydroisoquinolin-2(1H)-yl)-2-hydroxypropyl)-2-methylquinoline-6-carboxamide] |  |
| < 100 | O=C(NC[C@H](O)CN1CCc2ccccc2C1)c1ccc(OC2CCN(Cc3ccncc3)CC2)cc1 [Compound 331] |  |
| < 100 | CN1CCC(Nc2ccc(C(=O)NCC(O)CN3CCc4ccccc4C3)cc2)CC1 (stereo not drawn) [Compound 139] |  |
| < 100 | O=C(NCC(O)CN1CCc2ccccc2C1)c1cccc(OC2CCNC2)c1 (stereo not drawn) [Compound 119] |  |
| < 100 | CS(=O)(=O)N1CCC(Oc2ccc(C(=O)NCC(O)CN3CCc4ccccc4C3)cc2)C1 (stereo not drawn) [Compound 198] |  |
| < 100 | O=C(NC[C@H](O)CN1CCc2ccccc2C1)c1ccnc(NC2CCCC2)c1 [Compound 334] |  |
| < 100 | CN(C)C(=O)CNCc1cccc(C(=O)NCC(O)CN2CCc3ccccc3C2)c1 (stereo not drawn) [Compound 118] |  |
| < 100 | O=C(NCC(O)CN1CCc2ccccc2C1)c1cccc(NC2CCOCC2)n1 (stereo not drawn) [Compound 73] |  |
| < 100 | O=C(NC[C@H](O)CN1CCc2ccccc2C1)c1ccnc(NCC2CNCCO2)c1 (stereo partly drawn) [Compound 238] |  |
| < 100 | CN(C)CCCOc1ccc(C(=O)NCC(O)CN2CCc3ccccc3C2)cc1 (stereo not drawn) [Compound 178] |  |
| < 100 | NC(=O)CCCN1CCN(Cc2cccc(C(=O)NCC(O)CN3CCc4ccccc4C3)c2)CC1 (stereo not drawn) [Compound 159] |  |
| < 100 | O=C(NC[C@@H](O)CN1CCc2ccccc2C1)c1cccc(NC2CCOC2)c1 (stereo partly drawn) [Compound 81] |  |
| < 100 | O=C(NC[C@H](O)CN1CCc2ccccc2C1)c1cnc2ccccc2n1 [Compound 245] |  |
| < 100 | CN1CCC(Oc2ccc(C(=O)NCC(O)CN3CCc4ccccc4C3)cc2)CC1 (stereo not drawn) [Compound 105] |  |
| < 100 | CN1CCC(Nc2cc(C(=O)NC[C@H](O)CN3CCc4ccccc4C3)ccn2)C1 (stereo partly drawn) [Compound 255] |  |
| < 100 | CC(C)(C)C(=O)N1CCC(Oc2ccc(C(=O)NC[C@H](O)CN3CCc4ccccc4C3)cc2)CC1 [Compound 322] |  |
| < 100 | O=C(NC[C@H](O)CN1CCc2ccccc2C1)c1cncc(NC2CCN(CC(F)(F)F)C2)c1 (stereo partly drawn) [Compound 303] |  |
| < 100 | O=C(NC[C@H](O)CN1CCc2ccccc2C1)c1ccnc(NC2CCOC2)c1 (stereo partly drawn) [Compound 306] |  |
| < 100 | O=C(NCC(O)CN1CCc2ccccc2C1)c1cccc(N2CCS(=O)(=O)CC2)c1 (stereo not drawn) [Compound 164] |  |
| < 100 | O=C(NCC(O)CN1CCc2ccccc2C1)c1cncc(NC2CCOCC2)c1 (stereo not drawn) [Compound 54, N-(3-(3,4-dihydroisoquinolin-2(1H)-yl)-2-hydroxypropyl)-5-((tetrahydro-2H-pyran-4-yl)amino)nicotinamide] |  |
| < 100 | CS(=O)(=O)N1CCC(Oc2cc(C(=O)NC[C@H](O)CN3CCc4ccccc4C3)ccn2)CC1 [Compound 204] |  |
| < 100 | CC(=O)NCCN1CCN(Cc2cccc(C(=O)NCC(O)CN3CCc4ccccc4C3)c2)CC1 (stereo not drawn) [Compound 156] |  |
| < 100 | O=C(NCC(O)CN1CCc2ccccc2C1)c1ccc(OC2CCNC2)cc1 (stereo not drawn) [Compound 176] |  |
| < 100 | CS(=O)(=O)Nc1cccc(C(=O)NCC(O)CN2CCc3ccccc3C2)c1 (stereo not drawn) [Compound 24] |  |
| < 100 | O=C(NCC(O)CN1CCc2ccccc2C1)c1ccc(OC2CCNCC2)cc1 (stereo not drawn) [Compound 104] |  |
